The record followed here is patent publication US8895738B2, “Mesoionic pyrido [1, 2-A] pyrimidine pesticides” (E I du Pont de Nemours and Company, priority 2010, dated 2014).

Counter-ions that a name gives are not always drawn.

Holding throughout (format): in vivo
Experiment [1] concerns green peach aphid (Myzus persicae). The experiment is described as follows: Test B: control of green peach aphid on radish plant, contact and/or systemic. To be noted: 144 h, assessed after 6 days. From the text: For evaluating control of green peach aphid (Myzus persicae) through contact and/or systemic means, the test unit consisted of a small open container with a 12-15-day-old radish plant inside. This was pre-infested by placing on a leaf of the test plant 30-40 aphids on a piece of leaf excised from a culture plant (cut-leaf method). The aphids moved onto the test plant as the leaf piece desiccated. After pre-infestation, the soil of the test unit was covered with a layer of sand.
Test compounds were formulated and sprayed at 250, 50 and/or 10 ppm as described for Test A. The applications were replicated three times. After spraying of the formulated test compound, each test unit was allowed to dry for 1 h and then a black, screened cap was placed on top. The test units were held for 6 days in a growth chamber at 19-21° C. and 50-70% relative humidity. Each test unit was then visually assessed for insect mortality.

Experiment [2] relates to corn planthopper (Peregrinus maidis). The experiment is described as follows: Test D: control of corn planthopper on maize plant, contact and/or systemic. To be noted: 144 h, assessed after 6 days, read-out: control efficacy: mortality. The method, then:
For evaluating control of corn planthopper (Peregrinus maidis) through contact and/or systemic means, the test unit consisted of a small open container with a 3-4-day-old maize plant (spike) inside. White sand was added to the top of the soil prior to application. Test compounds were formulated and sprayed at 250, 50, 10 and/or 2 ppm, and replicated three times as described for Test A. After spraying, the test units were allowed to dry for 1 h before they were post-infested with ˜15-20 nymphs (18 to 21 day old) by sprinkling them onto the sand with a salt shaker. A black, screened cap was placed on the top of each test unit, and the test units were held for 6 days in a growth chamber at 22-24° C. and 50-70% relative humidity. Each test unit was then visually assessed for insect mortality.

For experiment [3], the system named is rice green leafhopper (Nephotettix virescens). The experiment can be described thus: Test G: control of rice green leafhopper on rice plant. The conditions noted are these: 120 h, assessed after 5 days, read-out: control efficacy: mortality. Here is the method:
For evaluating control of rice green leafhopper (Nephotettix virescens) through contact and/or systemic means, the test unit consisted of a plastic pot containing a 13-cm-tall rice plant covered with steel wire mesh (50 mesh) supported by a wire frame. A small amount of sand was added to form a good seal between the bottom of the wire mesh, the soil surface and the top edge of the plastic pot.
Test compounds were formulated and sprayed at 50, 10 and/or 2 ppm, and the tests were replicated three times in a manner similar to the one described for Test A. After spraying, the test units were allowed to dry for 2 h before they were post-infested with 10 green leafhoppers (3rd instar nymphs, 7-9 days post-hatch). After 5 days, each test unit was visually assessed for insect mortality.

For experiment [4], the system named is rice brown planthopper (Nilaparvata lugens). The experiment can be described thus: Test H: control of rice brown planthopper on rice plant. To be noted: 120 h, assessed after 5 days, read-out: control efficacy: mortality. Here is the method:
For evaluating control of rice brown planthopper (Nilaparvata lugens) through contact and/or systemic means, the test unit consisted of a plastic pot containing a 13-cm-tall rice plant covered with steel wire mesh (50 mesh) supported by a wire frame. A small amount of sand was added to form a good seal between the bottom of the wire mesh, the soil surface and the top edge of the plastic pot.
Test compounds were formulated and sprayed at 10, 2 and/or 0.4 ppm, and the tests were replicated three times in a manner similar to the one described for Test A. After spraying, the test units were allowed to dry for 2 h before they were post-infested with 10 brown planthoppers (3rd instar nymphs, 7-9 days post-hatch). After 5 days, each test unit was visually assessed for insect mortality.

Experiment [5] has as its system Rice plants (indica cultivar ‘MTU1010’). The experiment can be described thus: Test I: vigor of rice crop outdoors, foliar application, West Godavri. To be noted: 20 days after application, Nilaparvata lugens level high. The method, then: To evaluate the effect of application of a compound of the invention on the vigor of rice crops grown under outdoor conditions, Tests 1 through 0 were conducted. “a.i.” refers to the amount of active ingredient applied.
Rice plants (indica cultivar ‘MTU1010’) were transplanted into flooded 5 m×3 m test plots of clay loam soil in the delta region of the West Godavri district, Andhra Pradesh, India, during the rainy season, and grown using local agronomic practices. After 47 days, aqueous mixtures of Compound 3 were applied to the foliage of the rice plants at 12.5, 25 or 50 g a.i./ha in a spray volume of 387 L/ha using a backpack sprayer. Plots of unsprayed rice plants were used as controls. Each treatment and control was replicated three times, and the plots were arranged in a randomized complete block design. At the time of application of Compound 3, the pest level of rice brown planthopper (Nilaparvata lugens) was high, i.e. much above the level considered economically significant.
The crop vigor of the rice plants in each plot was visually rated based on general external appearance (e.g., plant height) 20 days after application on a 0 to 200% scale, wherein the plants in untreated control plots were considered to represent 100%, and the results for the three replicates for each treatment were averaged. More than 100% means the plants in a treated plot were more vigorous than those in the untreated control plot, while less than 100% means the plants in the treated pot were less vigorous.

By mortality is commonly meant the share of the test organisms that died. In the case of `O=c1c(-c2cccc(C(F)(F)F)c2)c([O-])[n+](Cc2cncnc2)c2ccccn12` [Compound 3, 2-hydroxy-4-oxo-1-(5-pyrimidinylmethyl)-3-[3-(trifluoromethyl)phenyl]-4H-pyrido[1,2-a]pyrimidinium inner salt], the mortality at 50 ppm in experiment [1] (sprayed at 50 ppm), in experiment [2] (sprayed at 50 ppm) and in experiment [3] (sprayed at 50 ppm) was ≥ 80% in each case. Besides, the mortality at 250 ppm in experiment [1] (sprayed at 250 ppm) and in experiment [2] (sprayed at 250 ppm) was ≥ 80% throughout. The mortality at 2 ppm in experiment [2] (sprayed at 2 ppm), in experiment [3] (sprayed at 2 ppm) and in experiment [4] (sprayed at 2 ppm) was ≥ 80% each time. Moreover, the mortality at 10 ppm in experiment [2] (sprayed at 10 ppm), in experiment [3] (sprayed at 10 ppm) and in experiment [4] (sprayed at 10 ppm) was ≥ 80% each time. The “crop vigor (visual rating, 0 to 200% scale, untreated = 100%)” value in experiment [5] (12.5 g a.i./ha foliar) is reported as 140%; in experiment [5] (25 g a.i./ha foliar), 143%; in experiment [5] (50 g a.i./ha foliar), 143%.
